Test results: patent US7741354B2, “Inhibitors of glutaminyl cyclase” (Probiodrug AG, priority 2006, dated 2010)

Each molecule was assayed against hQC (Homo sapiens, UniProt Q16769) (assay: Fluorometric (fluorescent) assay of hQC inhibition, IC50). Conditions: hQC inhibition; read-out: IC50.
Type: biochemical
Method: All compounds were immediately tested regarding their activity as hQC inhibitors.
The purity of the compounds was determined by HPLC-MS. The IC50 value against hQC was measured using the fluorescent assay.
All measurements were performed with a BioAssay Reader HTS-7000Plus for microplates (Perkin Elmer) at 30° C. QC activity was evaluated fluorometrically using H-Gln-βNA. The samples consisted of 0.2 mM fluorogenic substrate, 0.25 U pyroglutamyl aminopeptidase (Unizyme, Horsholm, Denmark) in 0.2 M Tris/HCl, pH 8.0 containing 20 mM EDTA and an appropriately diluted aliquot of QC in a final volume of 250 μl. Excitation/emission wavelengths were 320/410 nm. The assay reactions were initiated by addition of glutaminyl cyclase. QC activity was determined from a standard curve of β-naphthylamine under assay conditions. One unit is defined as the amount of QC catalyzing the formation of 1 μmol pGlu-βNA from H-Gln-βNA per minute under the described conditions.
In a second fluorometric assay, QC was activity determined using H-Gln-AMC as substrate. Reactions were carried out at 30° C. utilizing the NOVOStar reader for microplates (BMG labtechnologies). The samples consisted of varying concentrations of the fluorogenic substrate, 0.1 U pyroglutamyl aminopeptidase (Qiagen) in 0.05 M Tris/HCl, pH 8.0 containing 5 mM EDTA and an appropriately diluted aliquot of QC in a final volume of 250 μl. Excitation/emission wavelengths were 380/460 nm. The assay reactions were initiated by addition of glutaminyl cyclase. QC activity was determined from a standard curve of 7-amino-4-methylcoumarin under assay conditions. The kinetic data were evaluated using GraFit sofware.
For inhibitor testing, the sample composition was the same as described above, except of the putative inhibitory compound added. For a rapid test of QC-inhibition, samples contained 4 mM of the respective inhibitor and a substrate concentration at 1 KM. For detailed investigations of the inhibition and determination of Ki-values, influence of the inhibitor on the auxiliary enzymes was investigated first. […] The inhibitory constant was evaluated by fitting the set of progress curves to the general equation for competitive inhibition using GraFit software.

Sequence of hQC (Q16769 29-361): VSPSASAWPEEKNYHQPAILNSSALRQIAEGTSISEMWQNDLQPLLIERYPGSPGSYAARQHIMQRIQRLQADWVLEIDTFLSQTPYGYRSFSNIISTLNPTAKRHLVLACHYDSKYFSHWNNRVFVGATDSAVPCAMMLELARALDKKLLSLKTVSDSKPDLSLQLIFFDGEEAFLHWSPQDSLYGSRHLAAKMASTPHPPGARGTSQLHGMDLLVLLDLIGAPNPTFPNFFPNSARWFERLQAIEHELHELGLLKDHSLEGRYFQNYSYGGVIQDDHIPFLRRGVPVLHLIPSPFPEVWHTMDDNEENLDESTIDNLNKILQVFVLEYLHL

| IC50 [µM] | Structure (SMILES) |
| --- | --- |
| 5.8 | Cc1cc(C(Nc2ccc3[nH]cnc3c2)c2nnnn2CC2COC(C)(C)O2)cc(C)c1O (stereo not shown) [compound 165, 4-{(1H-Benzoimidazol-5-ylamino)-[1-(2,2-dimethyl-[1,3]dioxolan-4-ylmethyl)-1H-tetrazol-5-yl]-methyl}-2,6-dimethyl-phenol] |
| 7.6 | CC(Cc1ccc2c(c1)OCO2)C(Nc1ccc2[nH]cnc2c1)c1nnnn1C1CCCCC1 (stereo not shown) [compound 116, [3-Benzo[1,3]dioxol-5-yl-1-(1-cyclohexyl-1H-tetrazol-5-yl)-2-methyl-propyl]-(1H-benzoimidazol-5-yl)-amine] |
| 4.9 | CC(Cc1ccc2c(c1)OCO2)C(Nc1ccc2[nH]cnc2c1)c1nnnn1CC(=O)OC(C)(C)C (stereo not shown) [compound 149, {5-[3-Benzo[1,3]dioxol-5-yl-1-(1H-benzoimidazol-5-ylamino)-2-methyl-propyl]-tetrazol-1-yl}-acetic acid tert-butyl ester] |
| 7.6 | CCOC(=O)C1CCCCC1n1nnnc1C(Nc1ccc2[nH]cnc2c1)c1cc(Cl)ccc1O (stereo not shown) [compound 169, 2-{5-[(1H-Benzoimidazol-5-ylamino)-(5-chloro-2-hydroxy-phenyl)-methyl]-tetrazol-1-yl}-cyclohexacar-boxylic acid ethyl ester] |
| 3.1 | CCc1ccc(C(Nc2ccc3[nH]cnc3c2)c2nnnn2Cc2ccccc2)s1 (stereo not shown) [compound 133, (1H-Benzoimidazol-5-yl)-[(1-benzyl-1H-tetrazol-5-yl)-(5-ethyl-thiophen-2-yl)-methyl]-amine] |
| 5.8 | COc1ccccc1C(Nc1ccc2[nH]cnc2c1)c1nnnn1Cc1ccccc1 (stereo not shown) [compound 151] |
| 4.9 | Brc1cc(Br)cc(C(Nc2ccc3[nH]cnc3c2)c2nnnn2-c2ccccc2OCc2ccccc2)c1 (stereo not shown) [compound 180, (1H-Benzoimidazol-5-yl)-[[1-(2-benzyloxy-phenyl)-1H-tetrazol-5-yl]-(3,5-dibromo-phenyl)-methyl]-amine] |
| 6.7 | COC(=O)c1cccc(C(Nc2ccc3[nH]cnc3c2)c2nnnn2-c2ccc(C(C)(C)C)cc2)c1 (stereo not shown) [compound 128, 3-{(1H-Benzoimidazol-5-ylamino)-[1-(4-tert-butyl-phenyl)-1H-tetrazol-5-yl]-methyl}-benzoic acid methyl ester] |
| 4.9 | Brc1cc(Br)cc(C(Nc2ccc3[nH]cnc3c2)c2nnnn2CC2CCCO2)c1 (stereo not shown) [compound 170, (1H-Benzoimidazol-5-yl)-{(3,5-dibromo-phenyl)-[1-(tetrahydro-furan-2-ylmethyl)-1H-tetrazol-5-yl]-methyl}-amine] |
| 6.7 | CC(CC(Nc1ccc2[nH]cnc2c1)c1nnnn1-c1ccc(Oc2ccccc2)cc1)c1ccccc1 (stereo not shown) [compound 204, (1H-Benzoimidazol-5-yl)-{1-[1-(4-phenoxy-phenyl)-1H-tetrazol-5-yl]-3-phenyl-butyl}-amine] |
| 2.2 | Brc1ccc(C(Nc2ccc3[nH]cnc3c2)c2nnnn2-c2ccccc2OCc2ccccc2)cc1 (stereo not shown) [compound 203, (1H-Benzoimidazol-5-yl)-[[1-(2-benzyloxy-phenyl)-1H-tetrazol-5-yl]-(4-bromo-phenyl)-methyl]-amine] |
| 5.8 | Brc1cc(Br)cc(C(Nc2ccc3[nH]cnc3c2)c2nnnn2C(c2ccccc2)c2ccccc2)c1 (stereo not shown) [compound 186, [(1-Benzhydryl-1H-tetrazol-5-yl)-(3,5-dibromo-phenyl)-methyl]-(1H-benzoimidazol-5-yl)-amine] |
| 4 | CCCOc1cccc(C(Nc2ccc3[nH]cnc3c2)c2nnnn2CC2CCCO2)c1 (stereo not shown) [compound 141, (1H-Benzoimidazol-5-yl)-{(3-propoxy-phenyl)-[1-(tetrahydro-furan-2-ylmethyl)-1H-tetrazol-5-yl]-methyl}-amine] |
| 5.8 | CCOC(=O)C1CCCCC1n1nnnc1C(Nc1ccc2[nH]cnc2c1)c1ccc2c(c1)OCO2 (stereo not shown) [compound 162] |

Same assay, conditions: purified compound from preparative synthesis; fluorescent assay; read-out: IC50 hQC

| IC50 [µM] | Structure (SMILES) |
| --- | --- |
| 1.03 | CC(C)(C)Cn1nnnc1C(NCCCn1ccnc1)c1ccc2cccc(O)c2n1 (stereo not shown) [Compound 64, 2-[[1-(2,2-Dimethyl-propyl)-1H-tetrazol-5-yl]-(3-imidazol-1-yl-propylamino)-methyl]-quinolin-8-ol] |

Same assay, conditions: read-out: IC50

| IC50 [µM] | Structure (SMILES) |
| --- | --- |
| 4.9 | C/C=C/C=C/C(Nc1ccc2[nH]cnc2c1)c1nnnn1CC1COC(C)(C)O1 (stereo not shown) [compound 92, (1H-Benzoimidazol-5-yl)-{(2E,4E)-1-[1-(2,2-dimethyl-[1,3]dioxolan-4-ylmethyl)-1H-tetrazol-5-yl]-hexa-2,4-dienyl}-amine] |
| 2.2 | c1ccc2ncc(C(Nc3ccc4[nH]cnc4c3)c3nnnn3CC3CCCO3)cc2c1 (stereo not shown) [compound 102, (1H-Benzoimidazol-5-yl)-{quinolin-3-yl-[1-(tetrahydro-furan-2-ylmethyl)-1H-tetrazol-5-yl]-methyl}-amine] |
| 6.7 | CCOC(=O)C1CCCCC1n1nnnc1C(Nc1ccc2[nH]cnc2c1)c1ccc(Cl)c(F)c1 (stereo not shown) [compound 84] |
| 6.7 | Cc1ccc2c(C(Nc3ccc4[nH]cnc4c3)c3nnnn3CC3CCCO3)c[nH]c2c1 (stereo not shown) [compound 80, (1H-Benzoimidazol-5-yl)-{(6-methyl-1H-indol-3-yl)-[1-(tetrahydro-furan-2-ylmethyl)-1H-tetrazol-5-yl]-methyl}-amine] |
| 1.3 | COc1ccc(C(Nc2ccc3[nH]cnc3c2)c2nnnn2Cc2ccccc2Cl)c(C)c1 (stereo not shown) [compound 77, (1H-Benzoimidazol-5-yl)-[[1-(2-chloro-benzyl)-1H-tetrazol-5-yl]-(4-methoxy-2-methyl-phenyl)-methyl]-amine] |
| 6.7 | CCCCn1nnnc1C(NCCCn1ccnc1)c1ccc2[nH]ccc2c1 (stereo not shown) [compound 21, [(1-Butyl-1H-tetrazol-5-yl)-(1H-indol-5-yl)-methyl]-(3-imidazol-1-yl-propyl)-amine] |
| 6.7 | CCCC(C)C(Nc1ccc2[nH]cnc2c1)c1nnnn1CC(=O)N1CCc2ccccc2C1 (stereo not shown) [compound 98, 2-{5-[1-(1H-Benzoimidazol-5-ylamino)-2-methyl-pentyl]-tetrazol-1-yl}-1-(3,4-dihydro-1H-isoquinolin-2-yl)-ethanone] |
| 8.5 | COc1ncc(C(NCCCn2ccnc2)c2nnnn2C(C)(C)C)c(OC)n1 (stereo not shown) [compound 62, [(1-tert-Butyl-1H-tetrazol-5-yl)-(2,4-dimethoxy-pyrimidin-5-yl)-methyl]-(3-imidazol-1-yl-propyl)-amine] |
| 4 | COC(=O)Cn1nnnc1C(NCCCn1ccnc1)c1ccc(F)c(C#N)c1 (stereo not shown) [compound 53, {5-[(3-Cyano-4-fluoro-phenyl)-(3-imidazol-1-yl-propylamino)-methyl]-tetrazol-1-yl}-acetic methyl ester] |
| 6.7 | Cc1ccc(C(NCCCn2ccnc2)c2nnnn2Cc2ccc(Cl)cc2)cc1C (stereo not shown) [compound 2, [[1-(4-Chloro-benzyl)-1H-tetrazol-5-yl]-(3,4-dimethyl-phenyl)-methyl]-(3-imidazol-1-yl-propyl)-amine] |
| 7.6 | COCCCn1nnnc1C(NCCCn1ccnc1)c1ccc2[nH]ccc2c1 (stereo not shown) [compound 35, (3-Imidazol-1-yl-propyl)-{(1H-indol-5-yl)-[1-(3-methoxy-propyl)-1H-tetrazol-5-yl]-methyl}-amine] |
| 7.6 | CC(c1ccccc1)C(Nc1ccc2[nH]cnc2c1)c1nnnn1CC1CCCO1 (stereo not shown) [compound 100, (1H-Benzoimidazol-5-yl)-{2-phenyl-1-[1-(tetrahydro-furan-2-ylmethyl)-1H-tetrazol-5-yl]-propyl}-amine] |
| 4.9 | c1cn(CCCNC(c2ccc3[nH]ccc3c2)c2nnnn2C2CC2)cn1 (stereo not shown) [compound 69, [(1-Cyclopropyl-1H-tetrazol-5-yl)-(1H-indol-5-yl)-methyl]-(3-imidazol-1-yl-propyl)-amine] |
| 2.2 | Oc1cccc2ccc(C(NCCCn3ccnc3)c3nnnn3C[C@@H]3CCCO3)nc12 (stereo partly drawn) [compound 12, 2-((3-Imidazol-1-yl-propylamino)-{1-[(S)-1-(tetrahydro-furan-2-yl)methyl]-1H-tetrazol-5-yl}-methyl)-quinolin-8-ol] |
| 0.4 | CC(C)(C)Cn1nnnc1C(NCCCn1ccnc1)c1ccc2cccc(O)c2n1 (stereo not shown) [Compound 64, 2-[[1-(2,2-Dimethyl-propyl)-1H-tetrazol-5-yl]-(3-imidazol-1-yl-propylamino)-methyl]-quinolin-8-ol] |
| 2.2 | CCCCn1nnnc1C(NCCCn1ccnc1)c1ccc2cccc(O)c2n1 (stereo not shown) [compound 20, 2-[(1-Butyl-1H-tetrazol-5-yl)-(3-imidazol-1-yl-propylamino)-methyl]-quinolin-8-ol] |
| 4.9 | Cn1nnnc1C(NCCCn1ccnc1)c1ccc2ccccc2n1 (stereo not shown) [compound 31, (3-Imidazol-1-yl-propyl)-[(1-methyl-1H-tetrazol-5-yl)-quinolin-2-yl-methyl]-amine] |
| 3.1 | CC(Cc1ccc2c(c1)OCO2)C(Nc1ccc2[nH]cnc2c1)c1nnnn1Cc1ccccc1Cl (stereo not shown) [compound 113] |
| 3.1 | Cc1ccc(O)c(C(NCCCn2ccnc2)c2nnnn2C[C@@H]2CCCO2)c1 (stereo partly drawn) [compound 11, 2-((3-Imidazol-1-yl-propylamino)-{1-[(S)-1-(tetrahydro-furan-2-yl)methyl]-1H-tetrazol-5-yl}-methyl)-4-methyl-phenol] |
